Reference: patent US20210252115A1, “INHIBITION OF CATALYTIC SITE COMMON TO MULTIPLE 3 ALPHA-OXIDOREDUCTASES FOR TREATMENT OF PROSTATE CANCER” (Health Research, Inc., priority 2016, published 2021)
“Also recorded” adds a separate entry of the source.

Assays:
[1] = tested on: LAPC-4 cells; assay: Androgen levels (LC-MS/MS) in transfected LAPC-4 cells; assay type: cell-based, human; settings: for 5α-dione production after substrate treatment: 20 nM DIOL or 20 nM AND 12 h; for DHT levels after substrate treatment: 20 nM DIOL or 1 nM T 12 h, vs SFM
Procedure: LAPC-4 cells were plated at 1.2×10^5/well and CV-1 cells at 1×10^4/well in 6-well tissue culture plates (Corning). Media and cell pellets from two 6-well plates were combined to generate 1 media and 1 cell pellet sample for liquid chromatography-tandem mass spectrometry (LC-MS/MS) analysis. LAPC-4 cells were transfected using the Effectene Transfection Kit (Invitrogen, Grand Island, N.Y.). Forty-eight h after transfection, growth media was removed and LAPC-4 cells were washed once with Dulbecco's phosphate buffered saline (PBS, Corning). LAPC-4 cells were treated with serum-free complete media (SFM, Corning) alone or with 1 nM T, 20 nM DIOL 20 nM 5α-androstan-3α-ol-17-one (androsterone; AND) (Steraloids, Newport, R.I.) or 1 μM dutasteride (Selleckchem, Houston, Tex.) for 12 h. CV-1 cells were transfected using X-tremeGene HP transfection reagent (Roche Diagnostics Corporation, Indianapolis, Ind.). After 48 h, growth media were aspirated, CV-1 cells were washed once with PBS and incubated in SFM alone or with 20 nM AND (Steraloids) for 12 h.
After 12 h treatment, media (total 24 mL) were collected in 50 mL conical tubes (Corning). Cells were released using trypsin and collected in 15 mL conical tubes (Corning). The cells were washed 3 times using PBS, re-suspended in 1 mL PBS and 5% of the cell suspension was removed for protein concentration measurement and western blot analysis. The remaining 95% of the cell suspension was centrifuged and the supernatant was removed and discarded. Cell pellets were stored at −80° C. until analyzed using LC-MS/MS.
(§1) Cell pellet and media samples were analyzed over 9 runs for 5 androgens T, DHT, dehydroepiandrosterone, ASD and AND using a validated LC-MS/MS method. […] Study samples were quantitated using aqueous-based spiked calibration standards and pre-spiked quality control samples prepared in 2× charcoal-stripped human postmenopausal female plasma (Bioreclamation, LLC, Westbury, N.Y.).
Androgen concentrations (pmoles/mg protein) in cell lysates measured using LC-MS/MS (ng/mL) were multiplied by the total volume of the lysate (1 mL), normalized by the total amount of protein of the cell pellet (mg), divided by the molecular weight of the androgen (ng/nmole), and converted to pmoles. Media androgen concentrations (ng/mL) were multiplied by the total volume of media (24 mL), normalized against total protein of the cell culture (mg), divided by the molecular weight of the androgen (ng/nmole) and converted to pmoles. Cell pellet and media androgen concentrations were reported combined in Results and separately in Supplemental Results. Experiments were performed in triplicate.
Cell pellets were resuspended in HPLC-grade water and vortexed or sonicated to disrupt cell membranes to obtain a homogeneous suspension. Samples were extracted using 0.25 ml quality control, plasma blank or sample in 0.75-2.0 mL HPLC-grade water, 0.1 ml internal standard (IS) solution (75.0/225 pg/mL d3-T/d3-DHT) and 4 mL methyl-tert-butyl ether (MTBE, Omnisolve®, EMD Milipore, Billerica, Mass.) in glass screw-top tubes. Calibrators were prepared using 50 μl spiking solution prepared in 75% methanol and added to the extraction tube. Either the entire 1 mL cell pellet suspension was added to the extraction tube and the original container rinsed with 25% methanol in water or samples were volume and compositionally corrected. Tubes were capped with Teflon-lined caps, vortexed, rotated 15 min and centrifuged using a Sorvall model RT6000B centrifuge (Thermo Scientific) at 2,800 rpm and 4° C. for 15-30 min to separate liquid phases. The aqueous phase was frozen in a dry ice/acetone bath and MTBE layer was poured into a clean glass conical tube. MTBE was evaporated at 37° C. with nitrogen and the residue was reconstituted with 60% methanol. The suspension was centrifuged using Heraeus Multifuge X3R centrifuge (Thermo Scientific) at 2,800 rpm and 4° C. for 5 min to separate insoluble materials. An aliquot of the supernatant was injected. […]

[2] = tested on: VCaP cells; assay: Androgen levels (LC-MS/MS) in VCaP cells; assay type: cell-based, human; settings: for DHT levels after substrate treatment: VCaP, 12 h in SFM with 20 nM DIOL, 20 nM AND or 1 nM T, one cell pellet per condition; for DHT levels / DHT synthesis: VCaP in SFM, 1 μM dutasteride 12 h, no substrate added
Procedure: FIG. 8: Intracellular T and DHT levels from VCaP cells; Related to FIG. 3. VCaP cells were treated for 12 h in SFM with or without 1 μM Dut, 1 nM T, 20 nM DIOL or 20 nM AND. VCaP cells were harvested, one cell pellet was analyzed for each condition and androgen levels were measured using LC-MS/MS as described in Methods.
(§2) Experiments were performed in triplicate.
(§3) Empty plasmid, or plasmids for over-expression of RDH16 wild-type or RDH16-Y176F, K180R, were expressed into VCaP, C4-2 or CWR-R1 cells and DHT levels were measured using LC-MS/MS. […] C4-2 cells produced measurable levels of DHT that were reduced by dutasteride treatment (p=0.001; FIG. 6C; Table 10). […] C4-2 cells that expressed RDH16-Y176, K180R produced DHT levels similar to C4-2 cells with empty plasmid.

[3] = tested on: CV-1 cells; settings: CV-1, 20 nM AND 12 h, measurable only in the media
Procedure: LAPC-4 cells were plated at 1.2×10^5/well and CV-1 cells at 1×10^4/well in 6-well tissue culture plates (Corning). Media and cell pellets from two 6-well plates were combined to generate 1 media and 1 cell pellet sample for liquid chromatography-tandem mass spectrometry (LC-MS/MS) analysis. LAPC-4 cells were transfected using the Effectene Transfection Kit (Invitrogen, Grand Island, N.Y.). Forty-eight h after transfection, growth media was removed and LAPC-4 cells were washed once with Dulbecco's phosphate buffered saline (PBS, Corning). […]
After 12 h treatment, media (total 24 mL) were collected in 50 mL conical tubes (Corning). […] Cell pellets were stored at −80° C. until analyzed using LC-MS/MS.
as §1
Androgen concentrations (pmoles/mg protein) in cell lysates measured using LC-MS/MS (ng/mL) were multiplied by the total volume of the lysate (1 mL), normalized by the total amount of protein of the cell pellet (mg), divided by the molecular weight of the androgen (ng/nmole), and converted to pmoles. […]

[4] = tested on: C4-2 cells; assay: DHT levels (LC-MS/MS) in transfected C4-2 cells; assay type: cell-based, human
Procedure: as §2, §3

[5] = tested on: CWR-R1 cells; assay: DHT levels (LC-MS/MS) in transfected CWR-R1 cells; assay type: cell-based, human
Procedure: as §2, §3

[6] = tested on: LNCaP cells; assay: Androgen levels (LC-MS/MS) in transfected LNCaP cells; assay type: cell-based, human; settings: dutasteride 12 h, cell pellet
Procedure: FIG. 11: Intracellular LNCaP T levels after treatment with dutasteride or SFM. Related to FIG. 6. LNCaP cells were transfected with empty plasmid, wild-type or Y176F, K180R RDH16, treated with SFM or SFM with dutasteride for 12 h and cell pellet androgen levels were measured using LC-MS/MS. T levels for LNCaP and western blot analysis for DDK tag.
as §2

[7] = CaP, background statement; cited from earlier work
[8] = tested on: SRD5A; assay: Tissue DHT levels (LC-MS/MS), Selenium and Finasteride Pre-Treatment Trial; assay type: in vivo, human; settings: research subjects with CaP before radical prostatectomy, benign and malignant macro-dissected samples; data not shown

## C[C@]12CC[C@@H](O)C[C@@H]1CC[C@@H]1[C@@H]2CC[C@]2(C)C(=O)CC[C@@H]12 [AND, 5α-androstan-3α-ol-17-one]
[1]; LAPC-4 with empty plasmid
  5α-dione production after substrate treatment: produced
[2]
  DHT levels after substrate treatment: increased
[3]
  5α-dione production after substrate treatment: only a small amount

## C[C@]12CC[C@@H](O)C[C@@H]1CC[C@@H]1[C@@H]2CC[C@]2(C)[C@@H](O)CC[C@@H]12 [DIOL, 5α-androstane-3α, 17β-diol]
[1]; LAPC-4 with empty plasmid
  DHT levels after substrate treatment: higher
  5α-dione production after substrate treatment: produced
[2]
  DHT levels after substrate treatment: increased

## C[C@]12CC[C@H]3[C@@H](CCC4=CC(=O)CC[C@@]43C)[C@@H]1CC[C@@H]2O [T, testosterone]
[1]; LAPC-4 with empty plasmid
  DHT levels after substrate treatment: higher
[2]
  DHT levels after substrate treatment: not

## C[C@]12C=CC(=O)N[C@@H]1CC[C@@H]1[C@@H]2CC[C@]2(C)[C@@H](C(=O)Nc3cc(C(F)(F)F)ccc3C(F)(F)F)CC[C@@H]12 [dutasteride]
[4]; C4-2 expressing wild-type RDH16, dutasteride vs SFM
  DHT levels: appeared to be reduced
[4]; C4-2 with empty plasmid, dutasteride vs SFM, p=0.001 in text
  DHT levels: reduced
[1]; LAPC-4 expressing mutant RDH16 or DHRS9 plus dutasteride, vs LAPC-4 treated with dutasteride alone
  DHT levels: lowered further
[1]; LAPC-4 expressing wild-type RDH16 or DHRS9, 1 μM dutasteride 12 h vs SFM
  DHT levels: No effect
[1]; LAPC-4 with empty plasmid, 1 μM dutasteride 12 h vs SFM, cell pellet, p=0.041
  DHT levels: decreased; also recorded: lower
[1]; all LAPC-4 cells except those expressing RDH5-Δcat, dutasteride 12 h, cell pellet
  T levels: lowered
[2]; VCaP expressing wild-type RDH16, dutasteride vs SFM
  DHT levels: affected minimally
[2]
  DHT levels / DHT synthesis: did not lower
[2]; listed as Dutasteride
  DHT levels / DHT synthesis: did not impair DHT synthesis
[5]; CWR-R1 expressing RDH16-Y176F, K180R, dutasteride vs SFM
  DHT levels: appeared lower
[5]; CWR-R1 with empty plasmid or wild-type RDH16, dutasteride vs SFM
  DHT levels: did not lower
[6]
  T levels: not detected
[7]
  intratumoral DHT levels: not depleted

## CC(C)(C)NC(=O)[C@H]1CC[C@H]2[C@@H]3CC[C@H]4NC(=O)C=C[C@]4(C)[C@H]3CC[C@]12C [finasteride]
[8]
  CaP tissue levels of DHT: decreased
